Assay [1] addresses T1, Glutamate receptor ionotropic, AMPA (Rattus norvegicus, UniProt P19490+P19491+P19492+P19493). Put plainly: Ability to block kainate-induced 45 [Ca2+] influx through functional assay of Ionotropic glutamate receptor AMPA activity in rat cerebellar granule cells.
Assay [2] has as its system Mus musculus. Put plainly: Blockade of ivc AMPA induced seizures in mice on subcutaneous administration (95%CI). In kind it is functional.
The test system of assay [3] is Mus musculus. Description: Minimum effective dose in mice on subcutaneous administration. In kind it is functional.
Assay [4] relates to Mus musculus. Description: Blockade of pentylenetetrazole induced seizures in mice on subcutaneous administration (95% CI). The format is functional.
The target in assay [5] is T1, Glutamate receptor ionotropic, AMPA. Put plainly: Ability to block kainate-induced 45 [Ca2+] influx through functional assay of Ionotropic glutamate receptor AMPA activity in rat cerebellar granule cells.
The subject of assay [6] is Mus musculus. Description: Blockade of pentylenetetrazole induced seizures in mice on subcutaneous administration. The format is functional. The note with it: sc, read-out: ID50 (the source's name).
The target in assay [7] is T1, Glutamate receptor ionotropic, AMPA. Put plainly: Evaluated in patch clamp electrophysiology study for its selectively evoked Ionotropic glutamate receptor AMPA mediated inward currents.
Assay [8] concerns Rattus norvegicus. Put plainly: Evaluated in vivo for the reduction in the population spike amplitude in the CA3 region of the hippocampus in anesthetized rat at a dose of 2 mg/kg (iv). The format is functional.
For assay [9], the species on record is Rattus norvegicus. Description: Evaluated in patch clamp electrophysiology study for its selectively evoked AMPA and NMDA (glutamate receptors) mediated inward currents reduction. The format is functional. (In patch-clamp work, channel activity is measured electrically.)

The source of these data is ChEMBL document CHEMBL1134701, “Atropisomeric quinazolin-4-one derivatives are potent noncompetitive alpha-amino-3-hydroxy-5-methyl-4-isoxazolepropionic acid (AMPA) receptor antagonists” (Bioorg Med Chem Lett, 2001).

The structures appear in SMILES notation.

What is called IC50 is the midpoint of a concentration-inhibition curve. A lower IC50 goes with greater potency in that assay. On to `Cc1ccccc1-n1c(/C=C/c2ccccn2)nc2c(Cl)cc(Cl)cc2c1=O`, for which, in assay [1], the half-inhibitory concentration (IC50) is greater than 1000 nM.

`COCc1cccc(/C=C/c2nc3ccc(F)cc3c(=O)n2-c2ccccc2Cl)n1` registered a half-inhibitory concentration (IC50) in assay [1] of 42 nM.

`O=c1c2cc(F)ccc2nc(/C=C/c2cccc(N3CCCC3)n2)n1-c1ccccc1Cl`: the IC50 in assay [1] is 31 nM. The IC50 values of the last two compounds are within 1.5-fold of each other.

The compound `CN(C)CCN(C)Cc1cccc(/C=C/c2nc3ccc(F)cc3c(=O)n2-c2ccccc2Cl)n1` gave a half-inhibitory concentration (IC50) in [1] of 150 nM.

`O=c1c2ccccc2nc(/C=C/c2ccccn2)n1-c1ccccc1C(F)(F)F` yielded an IC50 in assay [1] of 146 nM.

In [1], `COc1cc2nc(/C=C/c3ccccn3)n(-c3ccccc3C)c(=O)c2cc1OC` showed an IC50 greater than 1000 nM.

With `Cc1ccccc1-n1c(/C=C/c2ccccn2)nc2ccc(F)cc2c1=O`, the IC50 in assay [1] came to 248 nM.

`O=c1c2cc(F)ccc2nc(/C=C/c2ccccn2)n1-c1ccccc1F`: the IC50 in assay [1] came out at 180 nM.

`O=c1c2ccccc2nc(/C=C/c2ccccn2)n1-c1c(Cl)cccc1Cl` had a half-maximal inhibitory concentration (IC50) in assay [1] greater than 1000 nM.

As to `COC(=O)c1cccc(/C=C/c2nc3ccc(F)cc3c(=O)n2-c2ccccc2Cl)n1`, the half-inhibitory concentration (IC50) in assay [1] was found to be 400 nM.

`O=c1c2cc(F)ccc2nc(/C=C/c2ccccn2)n1-c1ccccc1Br`: in assay [1], the IC50 came to 65 nM.

In assay [1], `CCNCc1cccc(/C=C/c2nc3ccc(F)cc3c(=O)n2-c2ccccc2Cl)n1` showed an IC50 of 81 nM.

In the case of `COc1cccc(/C=C/c2nc3ccc(F)cc3c(=O)n2-c2ccccc2Cl)n1`, in [1], the IC50 was found to be 31 nM.

Compound `COc1cccc2c(=O)n(-c3ccccc3C)c(/C=C/c3ccccn3)nc12` returned an IC50 in assay [1] greater than 1000 nM.

Consider `CCOCc1cccc(/C=C/c2nc3ccc(F)cc3c(=O)n2-c2ccccc2Cl)n1`, for which the IC50 in assay [1] was 82 nM.

In [1], `O=c1c2ccccc2nc(/C=C/c2ccccn2)n1-c1ccccc1Cl` returned an IC50 of 433 nM.

For `CN(C)Cc1cccc(/C=C/c2nc3ccc(F)cc3c(=O)n2-c2ccccc2Cl)n1`, the midpoint of inhibition in assay [1], the IC50, lay at 178 nM. This IC50 lies about 2.4-fold lower than the previous one.

In [1], `O=c1c2ccccc2nc(/C=C/c2ccccn2)n1-c1ccccc1F` yielded an IC50 of 116 nM.

Compound `NCc1cccc(/C=C/c2nc3ccc(F)cc3c(=O)n2-c2ccccc2Cl)n1` returned an IC50 in [1] of 340 nM.

As to `O=c1c2cc(F)ccc2nc(/C=C/c2cccc(CF)n2)n1-c1ccccc1Cl`, in assay [1], the half-maximal inhibitory concentration (IC50) amounted to 56 nM.

Consider `Cc1ccccc1-n1c(/C=C/c2ccccn2)nc2ccc(Cl)cc2c1=O`, for which the IC50 in assay [1] came to 124 nM.

Regarding `CCN(CC)Cc1cccc(/C=C/c2nc3ccc(F)cc3c(=O)n2-c2ccccc2Cl)n1` (stereo in doubt; (+)-38), the ID50 in [2] came out at 3.1 mg/kg; in assay [4], 1.5 mg/kg. The compound also gave an MED in assay [3] of 5.6 mg/kg. Besides, 36 nM corresponded to half-maximal inhibition in assay [5] (IC50).

On to `CCN(CC)Cc1cccc(/C=C/c2nc3ccc(F)cc3c(=O)n2-c2ccccc2Cl)n1` (stereo in doubt; (-)-38), for which the ED50 in [6] worked out at 10 mg/kg. Further, the concentration for half-maximal inhibition (IC50) in assay [5] came to 0.1 nM.

For the compound `CC(=O)OCc1cccc(/C=C/c2nc3ccc(F)cc3c(=O)n2-c2ccccc2Cl)n1`, the IC50 in assay [1] was found to be 45 nM. This counts as double-digit nanomolar.

Consider `Cc1ccccc1-n1c(/C=C/c2ccccn2)nc2ccccc2c1=O` [PIRIQUALONE], for which the IC50 in assay [1] is 460 nM.

In the case of `CNCc1cccc(/C=C/c2nc3ccc(F)cc3c(=O)n2-c2ccccc2Cl)n1`, in assay [1], the IC50 amounted to 103 nM. This IC50 is about 4.5-fold lower than that of the compound before.

In turn, `Cc1ccc2nc(/C=C/c3ccccn3)n(-c3ccccc3C)c(=O)c2c1` gave an IC50 in assay [1] of 1370 nM.

On to `N#Cc1cccc(/C=C/c2nc3ccc(F)cc3c(=O)n2-c2ccccc2Cl)n1`, for which the IC50 in assay [1] was determined as 244 nM.

Compound `O=c1c2cc(F)ccc2nc(/C=C/c2ccccn2)n1-c1c(F)cccc1F` registered an IC50 in [1] greater than 300 nM.

For the compound `O=c1c2cc(F)ccc2nc(/C=C/c2cccc(CO)n2)n1-c1ccccc1Cl`, in assay [1], the IC50 was 58 nM.

On to `Cc1cccc(/C=C/c2nc3ccc(F)cc3c(=O)n2-c2ccccc2Cl)n1`, for which, in assay [1], half-maximal inhibition (IC50) was put at 36 nM.

In assay [1], `Cc1ccccc1-n1c(/C=C/c2ccccn2)nc2ccc(Br)cc2c1=O` yielded an IC50 of 162 nM.

In the case of `CCN(CC)Cc1cccc(/C=C/c2nc3ccc(F)cc3c(=O)n2-c2ccccc2Cl)n1` (stereo in doubt; 38), in assay [2] (Mus musculus, sc, read-out: ID50 (the source's name)), the ED50 came out at 3.6 mg/kg. The results for the IC50 in assay [7] and in [1] were 25 nM and 74 nM, respectively. Also, the Blockade in assay [8] was 65.1%. The minimal effective dose in assay [3] (Mus musculus, sc, read-out: MED) was determined as 10 mg/kg. The compound further showed an ID50 in assay [4] of 3.8 mg/kg. Further, the Reduction in assay [9] turned out to be 36%.

`CC(C)NCc1cccc(/C=C/c2nc3ccc(F)cc3c(=O)n2-c2ccccc2Cl)n1` showed an IC50 in assay [1] of 59 nM.

Compound `O=c1c2cc(F)ccc2nc(/C=C/c2ccccn2)n1-c1ccccc1Cl` returned an IC50 in assay [1] of 96 nM. Against the preceding compound, the IC50 is about 1.6-fold higher.

The compound `O=C(O)c1cccc(/C=C/c2nc3ccc(F)cc3c(=O)n2-c2ccccc2Cl)n1` came in with an IC50 in assay [1] greater than 1000 nM.

`Cc1cccc(C)c1-n1c(/C=C/c2ccccn2)nc2ccccc2c1=O` showed an IC50 in assay [1] greater than 1000 nM.

In turn, `O=Cc1cccc(/C=C/c2nc3ccc(F)cc3c(=O)n2-c2ccccc2Cl)n1` returned an IC50 in [1] of 97 nM.

In turn, `Cc1ccccc1-n1c(/C=C/c2ccccn2)nc2cc(Cl)ccc2c1=O` gave an IC50 in [1] greater than 3000 nM.

Take `COc1ccccc1-n1c(/C=C/c2ccccn2)nc2ccccc2c1=O`: half-maximal inhibition in assay [1] (IC50) required 1100 nM. In other words, the single-digit micromolar range.

For `Cc1ccccc1-n1c(/C=C/c2ccccn2)nc2c(Cl)cccc2c1=O`, the IC50 in [1] was greater than 1000 nM.

In turn, `O=c1c2cc(F)ccc2nc(/C=C/c2cccc(N3CCCCC3)n2)n1-c1ccccc1Cl` gave an IC50 in assay [1] greater than 300 nM.

For `O=c1c2ccccc2nc(/C=C/c2ccccn2)n1-c1ccccc1`, the 50% inhibitory concentration (IC50) in [1] was greater than 1000 nM.

As to `O=c1c2ccccc2nc(/C=C/c2ccccn2)n1-c1ccccc1Br`, in [1], the IC50 was determined as 102 nM. In other words, the sub-micromolar range.
